As a reminder, the IC50 is the concentration that inhibits the measured activity by half.

The target of the assay is T1, estrogen receptor (Homo sapiens, UniProt P03372).
T1 construct: endogenous in cells; host or cells: ECC-1 cells
T1 sequence (P03372 1-595): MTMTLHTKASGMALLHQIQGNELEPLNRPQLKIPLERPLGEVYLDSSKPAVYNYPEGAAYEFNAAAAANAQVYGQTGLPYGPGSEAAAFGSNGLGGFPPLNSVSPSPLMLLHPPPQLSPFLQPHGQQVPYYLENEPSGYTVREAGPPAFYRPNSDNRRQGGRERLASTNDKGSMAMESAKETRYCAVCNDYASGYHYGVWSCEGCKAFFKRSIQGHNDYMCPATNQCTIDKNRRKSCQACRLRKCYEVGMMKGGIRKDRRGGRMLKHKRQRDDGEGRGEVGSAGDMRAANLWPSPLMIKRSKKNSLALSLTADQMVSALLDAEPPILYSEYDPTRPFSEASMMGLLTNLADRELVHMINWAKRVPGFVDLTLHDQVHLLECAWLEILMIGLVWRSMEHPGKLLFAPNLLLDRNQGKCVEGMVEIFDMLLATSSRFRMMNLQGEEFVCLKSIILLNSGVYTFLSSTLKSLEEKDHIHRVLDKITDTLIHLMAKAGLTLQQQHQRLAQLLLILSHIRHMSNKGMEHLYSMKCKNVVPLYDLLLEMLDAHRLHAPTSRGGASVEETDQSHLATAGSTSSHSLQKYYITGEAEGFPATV
Nature of the assay: AP assay (alkaline phosphatase activity in ECC-1 cells), agonist mode (absence of E2) and antagonist mode (presence of 500 pM E2). Format: cell-based. The conditions noted are these: for Activity (estrogen receptor modulation, e.g., agonism and antagonism): 3 days, AP activity normalized to 500 pM E2 alone, agonist and antagonist mode combined; for IC50: AP assay; for IC50 / reduction in the E2-normalized signal in the AP assay (antagonist mode): antagonist mode, 500 pM E2, 3 days; for increase in E2-normalized signal in the AP assay (agonist mode): absence of E2, 3 days. The gist of the method:
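ECC-1 cells in hormone-depleted medium treated with compounds for 3 days, without E2 (agonist mode) or with 500 pM E2 (antagonist mode). AP activity read at 405 nm after p-nitrophenyl phosphate substrate, 40 min at 42 °C. Signal normalized to 500 pM E2 alone.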

For `CCC1CN(Cc2cc3cc([C@@H]4c5[nH]c6ccccc6c5C[C@@H](C)N4CC(C)(C)F)ccc3[nH]2)C1` [Compound I-91, (1R,3R)-1-[2-[(3-ethylazetidin-1-yl)methyl]-1H-indol-5-yl]-2-(2-fluoro-2-methyl-propyl)-3-methyl-1,3,4,9-tetrahydropyrido[3,4-b]indole], the “Activity (estrogen receptor modulation, e.g., agonism and antagonism)” value was “+ (estrogen receptor agonism having (i) at least 80% increase in the E2-normalized signal in the AP assay (agonist mode) and (ii) no more than 80% reduction in the E2-normalized signal in the AP assay (antagonist mode))”.
On the same count and under the same terms, the same measure for `C[C@@H]1Cc2c([nH]c3ccccc23)[C@@H](c2ccc3[nH]c(CN4CC(C)(C)C4)cc3c2)N1CC(C)(C)F` [Compound I-92, (1R,3R)-1-[2-[(3,3-dimethylazetidin-1-yl)methyl]-1H-indol-5-yl]-2-(2-fluoro-2-methyl-propyl)-3-methyl-1,3,4,9-tetrahydropyrido[3,4-b]indole]: “+ (estrogen receptor agonism having (i) at least 80% increase in the E2-normalized signal in the AP assay (agonist mode) and (ii) no more than 80% reduction in the E2-normalized signal in the AP assay (antagonist mode))”; for `C[C@@H]1Cc2c([nH]c3ccccc23)[C@@H](c2ccc3[nH]c(CO)cc3c2)N1CC(C)(C)F` [Compound I-93, [5-[(1R,3R)-2-(2-fluoro-2-methyl-propyl)-3-methyl-1,3,4,9-tetrahydropyrido[3,4-b]indol-1-yl]-1H-indol-2-yl]methanol]: “+ (estrogen receptor agonism having (i) at least 80% increase in the E2-normalized signal in the AP assay (agonist mode) and (ii) no more than 80% reduction in the E2-normalized signal in the AP assay (antagonist mode))”; for `COC1CN(Cc2cc3cc([C@@H]4c5[nH]c6ccccc6c5C[C@@H](C)N4CC(C)(C)F)ccc3[nH]2)C1` [Compound I-94, (1R,3R)-2-(2-fluoro-2-methyl-propyl)-1-[2-[(3-methoxyazetidin-1-yl)methyl]-1H-indol-5-yl]-3-methyl-1,3,4,9-tetrahydropyrido[3,4-b]indole]: “+ (estrogen receptor agonism having (i) at least 80% increase in the E2-normalized signal in the AP assay (agonist mode) and (ii) no more than 80% reduction in the E2-normalized signal in the AP assay (antagonist mode))”.
Same read-out and setting: the same measure for `CC(C)C1CN(Cc2cc3cc([C@@H]4c5[nH]c6ccccc6c5C[C@@H](C)N4CC(C)(C)F)ccc3[nH]2)C1` [Compound I-95, (1R,3R)-2-(2-fluoro-2-methyl-propyl)-1-[2-[(3-isopropylazetidin-1-yl)methyl]-1H-indol-5-yl]-3-methyl-1,3,4,9-tetrahydropyrido[3,4-b]indole]: “+ (estrogen receptor agonism having (i) at least 80% increase in the E2-normalized signal in the AP assay (agonist mode) and (ii) no more than 80% reduction in the E2-normalized signal in the AP assay (antagonist mode))”.
For the compound `C[C@@H]1Cc2c([nH]c3ccccc23)[C@@H](c2ccc3[nH]c(CN4CC(CC#N)C4)cc3c2)N1CC(C)(C)F` [Compound I-98, 2-[1-[[5-[(1R,3R)-2-(2-fluoro-2-methyl-propyl)-3-methyl-1,3,4,9-tetrahydropyrido[3,4-b]indol-1-yl]-1H-indol-2-yl]methyl]azetidin-3-yl]acetonitrile], the “Activity (estrogen receptor modulation, e.g., agonism and antagonism)” value was “++ (estrogen receptor antagonism having (i) between 10% and 80% increase in the E2-normalized signal in the AP assay (agonist mode) and (ii) between 10% and 80% reduction in the E2-normalized signal in the AP assay (antagonist mode))”.
On the same count and under the same terms, the same measure for `C[C@@H]1Cc2c([nH]c3ccccc23)[C@@H](c2ccc3[nH]c(CN4CC(N(C)C)C4)cc3c2)N1CC(C)(C)F` [Compound I-99, 1-[[5-[(1R,3R)-2-(2-fluoro-2-methyl-propyl)-3-methyl-1,3,4,9-tetrahydropyrido[3,4-b]indol-1-yl]-1H-indol-2-yl]methyl]-N,N-dimethyl-azetidin-3-amine]: “++ (estrogen receptor antagonism having (i) between 10% and 80% increase in the E2-normalized signal in the AP assay (agonist mode) and (ii) between 10% and 80% reduction in the E2-normalized signal in the AP assay (antagonist mode))”; for `C[C@@H]1Cc2c([nH]c3ccccc23)[C@@H](c2ccc3[nH]c(CN4CC(C(F)F)C4)cc3c2)N1CC(C)(C)F` [Compound I-100, (1R,3R)-1-[2-[[3-(difluoromethyl)azetidin-1-yl]methyl]-1H-indol-5-yl]-2-(2-fluoro-2-methyl-propyl)-3-methyl-1,3,4,9-tetrahydropyrido[3,4-b]indole]: “++ (estrogen receptor antagonism having (i) between 10% and 80% increase in the E2-normalized signal in the AP assay (agonist mode) and (ii) between 10% and 80% reduction in the E2-normalized signal in the AP assay (antagonist mode))”; for `C[C@@H]1Cc2c([nH]c3ccccc23)[C@@H](c2ccc3[nH]c(CN4CC(F)(F)C4)cc3c2)N1CC(C)(C)F` [Compound I-101, (1R,3R)-1-[2-[(3,3-difluoroazetidin-1-yl)methyl]-1H-indol-5-yl]-2-(2-fluoro-2-methyl-propyl)-3-methyl-1,3,4,9-tetrahydropyrido[3,4-b]indole]: “++ (estrogen receptor antagonism having (i) between 10% and 80% increase in the E2-normalized signal in the AP assay (agonist mode) and (ii) between 10% and 80% reduction in the E2-normalized signal in the AP assay (antagonist mode))”.
Still for that read-out and setting: the same measure for `C[C@@H]1Cc2c([nH]c3ccccc23)[C@@H](c2ccc3[nH]c(CN4CC(C)(F)C4)cc3c2)N1CC(C)(C)F` [Compound I-102, (1R,3R)-1-[2-[(3-fluoro-3-methyl-azetidin-1-yl)methyl]-1H-indol-5-yl]-2-(2-fluoro-2-methyl-propyl)-3-methyl-1,3,4,9-tetrahydropyrido[3,4-b]indole]: “++ (estrogen receptor antagonism having (i) between 10% and 80% increase in the E2-normalized signal in the AP assay (agonist mode) and (ii) between 10% and 80% reduction in the E2-normalized signal in the AP assay (antagonist mode))”; for `C[C@@H]1Cc2c([nH]c3ccccc23)[C@@H](c2ccc3sc(CN4CC(CF)C4)nc3c2)N1CC(C)(C)F` [Compound I-103, 2-[[3-(fluoromethyl)azetidin-1-yl]methyl]-5-[(1R,3R)-2-(2-fluoro-2-methyl-propyl)-3-methyl-1,3,4,9-tetrahydropyrido[3,4-b]indol-1-yl]-1,3-benzothiazole]: “+ (estrogen receptor agonism having (i) at least 80% increase in the E2-normalized signal in the AP assay (agonist mode) and (ii) no more than 80% reduction in the E2-normalized signal in the AP assay (antagonist mode))”.
On the same count and under the same terms, for `C[C@@H]1Cc2c([nH]c3ccccc23)[C@@H](c2ccc3c(c2)nc(CN2CC(CF)C2)[s+]3[O-])N1CC(C)(C)F` (stereo partly drawn) [Compound I-104, 2-[[3-(fluoromethyl)azetidin-1-yl]methyl]-5-[(1R,3R)-2-(2-fluoro-2-methyl-propyl)-3-methyl-1,3,4,9-tetrahydropyrido[3,4-b]indol-1-yl]-1,3-benzothiazole 1-oxide] the value was “+ (estrogen receptor agonism having (i) at least 80% increase in the E2-normalized signal in the AP assay (agonist mode) and (ii) no more than 80% reduction in the E2-normalized signal in the AP assay (antagonist mode))”.
Regarding `C[C@@H]1Cc2c([nH]c3ccccc23)[C@@H](c2ccc3[nH]c(CN4CC(CF)C4)cc3c2)N1CC(F)(F)C(F)F` [Compound I-109, (1R,3R)-1-[2-[[3-(fluoromethyl)azetidin-1-yl]methyl]-1H-indol-5-yl]-3-methyl-2-(2,2,3,3-tetrafluoropropyl)-1,3,4,9-tetrahydropyrido[3,4-b]indole], the IC50 is less than 398 nM, the “increase in E2-normalized signal in the AP assay (agonist mode)” value was “no more than 10%” and the “reduction in the E2-normalized signal in the AP assay (antagonist mode)” value is listed as not below 10%.
The matching figures for `C[C@@H]1Cc2c([nH]c3ccccc23)[C@@H](c2ccc3[nH]c(CN4CC(CF)C4)cc3c2)N1CC(F)(F)C(F)(F)F` [Compound I-110, (1R,3R)-1-[2-[[3-(fluoromethyl)azetidin-1-yl]methyl]-1H-indol-5-yl]-3-methyl-2-(2,2,3,3,3-pentafluoropropyl)-1,3,4,9-tetrahydropyrido[3,4-b]indole]: less than 398 nM, “no more than 10%” and not below 10%.

The values are drawn from US20260355165A1, “2,3,4,9-TETRAHYDRO-1H-PYRIDO[3,4-B]INDOLE DERIVATIVES AS ESTROGEN RECEPTOR MODULATORS FOR THE TREATMENT OF CANCER” (Olema Pharmaceuticals, Inc., priority 2022, published 2026).
